Measured values: US9675715B2, “Contrast agent for photoacoustic imaging” (CANON KABUSHIKI KAISHA, priority 2012, dated 2017)
Entries after “also recorded” stand apart in the source; their conditions may differ.

Columns and labels:
[1] = Hydrodynamic average particle size by dynamic light scattering; assay type: physicochemical; details: DLS-8000
Description: In this embodiment, the particle size of the particles may be determined by measuring the hydrodynamic average particle size using the dynamic light scattering (DLS) method with a dynamic light scattering spectrophotometer (DLS-8000, manufactured by Otsuka Electronics Co., Ltd).
The ICG-encapsulating micellar particles refer to micellar particles in which ICG is contained in surfactant micelles by a known emulsification technique.

N87 cell line tumor = experiment: Amount transferred into tumor mass, fluorescence imaging of N87 tumor-bearing mice; assay type: in vivo, mouse; details: 1 day after administration, fluorescence ROI of tumor site, relative to ROI value of ICG
Method: The tumor-bearing mice were prepared by subcutaneously implanting a human gastric cancer cell line (N87) or a human cervical cancer cell line (HeLa) into nude mice. Then 130 nmol of a contrast agent in terms of the amount of the dye was administered into each of the tumor-bearing mice. […] As a comparative example, fluorescence imaging of the tumor-bearing mice was performed 1 day after the administration. Fluorescence imaging was performed with IVIS (registered trademark) Imaging System to measure fluorescence intensity in a region of interest (ROI) of the tumor site.
The tumor accumulation 1 day after the administration was evaluated by fluorescence. The accumulation in ROI of the tumor site was calculated.

[2] = system: sentinel lymph node (mouse popliteal lymph node); experiment: Photoacoustic imaging of sentinel lymph node after subcutaneous plantar administration; assay type: in vivo; details: photoacoustic imaging 1 day after subcutaneous administration into plantar surface of nude mouse, 130 nmol dye
Method: (§1) A commercially available photoacoustic imaging apparatus (Nexus128, manufactured by Endra Inc.) was used. Photoacoustic signals were measured at predetermined timings before and after the administration of a prepared contrast agent for PAI, and three-dimensional reconstruction data was acquired for each timing. The photoacoustic signal intensity in a region of interest (ROI) was measured on the basis of the resulting three-dimensional reconstruction data using software (GEHC MICROVIEW, GE Healthcare) or the like.

[3] = system: sentinel lymph node (mouse popliteal lymph node); experiment: Accumulation in sentinel lymph node, absorbance of lymph node extracts; assay type: in vivo; details: 1 day after administration, 10 nmol dye, accumulation of ICG defined as 1
Method: In examples of the present invention, the transfer of the contrast agent for PAI into a sentinel lymph node (SLN) was evaluated by the use of a mouse popliteal lymph node. Ten microliters of the contrast agent was administered subcutaneously into the plantar surface of a nude mouse.
As a comparative example, mouse popliteal lymph nodes were removed 1 day after the administration of various contrast agents, homogenized, and extracted. The resulting extracts were subjected to absorbance measurement.
Accumulation rates were each calculated on the basis of the following formula: Accumulation rate={(absorbance of removed mouse popliteal lymph node)/(absorbance corresponding to amount of sample administered)}×100
After the calculation of the accumulation, the accumulation ratios of various materials were calculated when the accumulation 1 day after the administration of ICG was defined as 1.
According to “Evaluation example of accumulation in sentinel lymph node”, the accumulation in a sentinel lymph node was evaluated. In this example, 10 nmol of the contrast agent in terms of the amount of the dye was administered to a mouse.

[4] = Accumulation of contrast agent in Colon 26 tumor, dye extraction and fluorescence; assay type: in vivo; details: BALB/c Slc-nu/nu, mouse, intravenous, 13 nmol in terms of ICG
Method: (§2) Tumor model mice were prepared by subcutaneously implanting Colon 26 cells into BALB/c Slc-nu/nu mice.
(§3) Tumor model mice were prepared by subcutaneously implanting Colon 26 cells into BALB/c Slc-nu/nu mice. […] Furthermore, in this example, an aqueous solution of ICG (available from Pharmaceutical and Medical Device Regulatory Science of Japan) was used as a control sample.

[5] = Blood accumulation in Colon 26 tumor model mice; assay type: in vivo; details: BALB/c Slc-nu/nu, mouse, intravenous, 13 nmol in terms of ICG, read-out: Blood accumulation 1 day after administration
Method: as §2, §3

tumor site = experiment: Photoacoustic signal intensity at tumor site 1 day after administration, relative to ICG; assay type: in vivo, mouse
Method: as §1

cerebral blood vessels = details: rat, free ICG administered in blood, NPL 1; cited from earlier work
[6] = known; cited from earlier work

In the case of `CC1(C)C(/C=C/C=C/C=C/C=C2/N(CCCCS(=O)(=O)[O-])c3ccc4ccccc4c3C2(C)C)=[N+](CCCCS(=O)(=O)[O-])c2ccc3ccccc3c21.[Na+]` [ICG, indocyanine green], the “Hydrodynamic average particle size” value [1] is reported as “unmeasurable”, the Relative tumor accumulation (N87 cell line tumor) is reported as 1.0 and the “Visualization of SLN” value [2] is reported as “substantially no photoacoustic signal was observed; also recorded: unvisualizable”. It also gave a Relative accumulation [3] of 1.0, a Kp at 24 h ([4]; tumor / blood, 1 day after administration, read-out: Ratio of accumulation (tumor/blood)) of 0.5 and a tissue uptake at 24 h ([4]; tumor tissue (Colon 26), Colon 26 tumor, 24 hours, read-out: Tumor accumulation 1 day after administration) of 0.1 %ID/g. For the same compound, the tissue uptake at 1 day [5] was 0.2 %ID/g, the “Relative photoacoustic signal intensity 1 day after administration (signal intensity in administration of ICG = 1.0)” value (tumor site) was 1.0 and the “time after administration at which photoacoustic signal intensity is reduced to a level equal to that of blood” value (cerebral blood vessels) was “several tens of minutes”. The half-life in blood [6] was “about several minutes”.
